From patent publication US4275065A, “Modulating the immune response with 2-substituted-3-hydroxythiazolo[2,3-b]b e” (American Home Products Corporation, priority 1980, dated 1981)

Legend:
[1] = tested on: autoimmune disease (systemic lupus erythematosus); experiment: autoimmune disease (systemic lupus erythematosus), immunoglobulin determinations, female NZB/W mice; format: in vivo, female NZB/W F1 mice; conditions: A 100 mg/kg, levamisole 25 mg/kg, i.p. twice weekly
Experimental: (§1) The effect of the compounds of the invention on the development and progress of autoimmune disease (systemic lupus erythematosus) in the New Zealand F1 hydrid mouse (NZB×NZW) is evaluated. NZB/W F1 mice are divided into two groups according to sex. […] IgG, IgM and antinuclear antibody determinations are made on pooled samples of serum obtained by capillary bleedings of the suborbital sinus at approximately monthly intervals. The compounds of the invention are suspended in a solution of physiological saline with 0.16% CMC. All dosing is twice weekly intraperitonially. […] Immunoglobulin values from serum samples are compared with the baseline (pretreatment) for each group.

[2] = tested on: autoimmune disease (systemic lupus erythematosus); experiment: autoimmune disease (systemic lupus erythematosus), immunoglobulin determinations, male NZB/W mice; format: in vivo, male NZB/W F1 mice; conditions: A 100 mg/kg, levamisole 25 mg/kg, i.p. twice weekly
Experimental: as §1

thymus gland = experiment: effect on the thymus gland (thymus weight); format: in vivo, BDF1 mice; conditions: Table 4
Experimental: The effect of the compounds of the invention on the thymus gland is measured. BDF1 mice of 18-20 gms. weight are dosed at 150 mg/kg. with 6-chloro-2-phenylthiazolo[2,3-b]benzothiazolo-3(2H)-one mesoionic didehydro derivative for eight consecutive days. The mice are sacrificed on the ninth day, the thymus glands excised and weighed. The excised thymus glands averaged […]. as compared to […]. for the control group. […] The weight loss is also correlated to dose, and the results are as follows:
Using the same technique, the following compounds of the invention were tested: 6-chloro-2-(p-chlorophenyl)thiazolo[2,3-b]benzothiazol-3(2H)-one mesoionic didehydro derivative (A), 2-phenyl-5,6,7,8-tetrahydrothiazolo[2,3-b]benzothiazol-3(2H)-one mesoionic didehydro derivative (B), 2-phenylthiazolo[2,3-b]-benzothiazol-3(2H)-one mesoionic didehydro derivative (C),6-chloro-2-trifluoroacetylthiazolo[2,3-b]benzothiazol-3(2H)-one mesoionic didehydro derivative (D), 6-chloro-3-hydroxy-2-phenylthiazolo[2,3-b]benzothiazolium bromide (E), 7-ethoxy-3-hydroxy-2-phenylthiazolo[2,3-b]benzothiazolium bromide (F), 3-hydroxy-2-phenylthiazolo[2,3-b]benzothiazolium bromide (G), and 3-hydroxy-2-phenyl-5,6,7,8-tetrahydrothiazolo[2,3-b]benzothiazolium bromide (H).

[3] = tested on: antibody-secreting plaque-forming splenocytes (IgG and IgM); experiment: Cunningham modification of the Jerne assay (hemolytic plaque technique), IgM and IgG plaques per spleen; format: in vivo, CDF1 (Balb/c × DBA/2) mice; conditions: Table 2, 200 mg/kg
Experimental: In this example, the compounds of the invention are tested for their effect on antibody-secreting plaque-forming splenocytes (IgG and IgM) in the Cunningham modification of the Jerne assay. This technique is able to detect, in a quantitative manner, antibody producing cells in response to antigen stimulus in the host mouse. For study of […] immune response, sheep erythrocytes (SRBC) are used (as in the present Example), while for humoral immune response, SRBC coupled with pneumococcal polysaccharide is used.
CDF1 (Balb/c × DBA/2) mice are immunized with 0.1 ml. of 10^8 sheep erythrocytes (SRBC) intraperitonially 4-5 days before the assay. The mice are separated into groups, with one group serving as a control and all other groups receiving compounds of the invention. The treated mice are dosed with drug on day one. […] The spleens of the sacrificed mice are excised and washed several times in RPMI 1640 with 10% fetal bovine serum. 100 λ of spleen cells are mixed with a drop of guinea pig complement, four drops of RPMI 1640 and a drop of 25% SRBC in a microtiter plate well and then pipetted into a Cunningham chamber. On day four, for IgM determinations, the chambers are incubated for 30 minutes at 37° C. Antibody, released by the small proportion of active cells, attaches to the surrounding erythrocytes which are lysed by complement leaving a small plaque up to 0.5 mm. in diameter. Since only cells releasing IgM antibody form plaques directly, a "developing" serum must be added to be able to form and view IgG plaques. Thus fifth or sixth day cultured spleen cells are further treated with rabbit antimouse IgG and then incubated for 45 minutes. Both IgM and IgG plaques are counted under a stereomicroscope.
In Table 1 are given the IgM and IgG plaque counts per spleen for mice treated with 6-chloro-2-phenylthiazolo[2,3-b]benzothiazol-3(2H)-one mesoionic didehydro derivative and for the controls:
The assay is repeated using the following compounds of the invention: 2-phenylthiazolo[2,3-b]benzothiazol-3(2H)-one mesoionic didehydro derivative (A), 6-chloro-2-(p-chlorophenyl)-thiazolo[2,3-b]benzothiazol-3(2H)-one mesoionic didehydro derivative (B) and 6-chloro-2-phenylthiazolo[2,3-b]benzothiazol-3(2H)-one mesoionic didehydro derivative (C).

hemolytic anemia = experiment: autoimmune hemolytic anemia model, serum immunoglobulins; format: in vivo, NZB mice; set-up: IgM, Baseline: unit not given beside the values; conditions: for ANA (antinuclear antibody), 1st Reading / IgG, 1st Reading / IgM, 1st Reading: 1st Reading (156 Days); for ANA (antinuclear antibody), 1st Reading / IgG, 1st Reading / IgM, 1st Reading / IgG, % Change / IgM, % Change: 200 mg/kg, four doses over two weeks; for IgG, % Change / IgM, % Change: 142 to 156 Days
Source text: NZB/W F1 mice are divided into two groups according to sex. At the initiation of drug treatment, female mice are 78.2 days old with an average weight of 30 g., while male mice are 69.5 days old with an average weight of 40 g. IgG, IgM and antinuclear antibody determinations are made on pooled samples of serum obtained by capillary bleedings of the suborbital sinus at approximately monthly intervals. The compounds of the invention are suspended in a solution of physiological saline with 0.16% CMC. All dosing is twice weekly intraperitonially.
Another autoimmune disease model, hemolytic anemia, is used to further evaluate the compounds of the invention. Thus, NZB mice, having an average age of 142 days and with well advanced hemolytic anemia, are divided into treatment groups and are dosed biweekly over a period of two weeks (four doses total) with the following compounds in the same manner as previously described: 6-chloro-2-(p-chlorophenyl)thiazolo[2,3-b]benzothiazol-3(2H)-one mesoionic didehydro derivative (A), 2-phenyl-5,6,7,8-tetrahydrothiazolo[2,3-b]benzothiazol-3(2H)-one mesoionic didehydro derivative (B), 2-phenylthiazolo[2,3-b]benzothiazol-3(2H)-one mesoionic didehydro derivative (C) and 6-chloro-2-trifluoroacetylthiazolo[2,3-b]benzothiazol-3(2H)-one mesoionic didehydro derivative (D). The immunoglobulin values from serum samples are compared with the baseline (pretreatment) for each group and the results are summarized in Table 10: […]

[4] = tested on: delayed hypersensitivity reaction; experiment: guinea pig delayed hypersensitivity assay (PPD); format: in vivo, Male Hartley strain guinea pigs; conditions: 50 mg/kg orally, read 24 hours after challenge, * = p < 0.05
[5] = Baseline (142 Days), 200 mg/kg group

c1ccc([C@H]2CN3CCSC3=N2)cc1 [Levamisole, L-(-)-2,3,5,6-tetrahydro-6-phenylimidazo[2,1-b]thiazole, reference compound]
IgG level ([1]; 47 Days): 404 mg./100 ml.
IgM level ([1]; 47 Days): 49 mg./100 ml.
IgG level ([1]; 76 Days): 490 mg./100 ml.
IgM level ([1]; 76 Days): 83 mg./100 ml.
IgG level ([1]; 111 Days): 980 mg./100 ml.
IgM level ([1]; 111 Days): 136 mg./100 ml.
IgG level ([1]; 154 Days): 900 mg./100 ml.
IgM level ([1]; 154 Days): 154 mg./100 ml.
IgG Total Change From Baseline [1]: +440 mg./100 ml.
IgM Total Change From Baseline [1]: +90 mg./100 ml.
IgG level ([1]; Pretreatment): 460 mg./100 ml.
IgM level ([1]; Pretreatment): 64 mg./100 ml.
IgG level ([2]; 47 Days): 560 mg./100 ml.
IgM level ([2]; 47 Days): 68 mg./100 ml.
IgG level ([2]; 76 Days): 710 mg./100 ml.
IgM level ([2]; 76 Days): 140 mg./100 ml.
IgG level ([2]; 111 Days): 710 mg./100 ml.
IgM level ([2]; 111 Days): 128 mg./100 ml.
IgG level ([2]; 154 Days): 910 mg./100 ml.
IgM level ([2]; 154 Days): 142 mg./100 ml.
IgG Total Change From Baseline [2]: +460 mg./100 ml.
IgM Total Change From Baseline [2]: +98.5 mg./100 ml.
IgG level ([2]; Pretreatment): 450 mg./100 ml.
IgM level ([2]; Pretreatment): 43.5 mg./100 ml.

Oc1c(-c2ccccc2)sc2sc3ccc(Cl)cc3[n+]12 [E]
% Change in weight (thymus gland) (thymus gland; 75 mg/kg): -56%
Avg. weight of thymus gland (thymus gland; 75 mg/kg): 17.5 mg

[O-]c1c(-c2ccc(Cl)cc2)sc2sc3ccc(Cl)cc3[n+]12 [B]
IgG, mean (total number of plaques per spleen) ([3]; Day 4): 9,656 plaques per spleen
IgM, mean (total number of plaques per spleen) ([3]; Day 4): 74,025 plaques per spleen
IgG, mean (total number of plaques per spleen) ([3]; Day 5): 49,218 plaques per spleen
IgM, mean (total number of plaques per spleen) ([3]; Day 5): 50,250 plaques per spleen
% Change in weight (thymus gland) (thymus gland; 200 mg/kg): -53%
Avg. weight of thymus gland (thymus gland; 200 mg/kg): 18.6 mg
ANA (antinuclear antibody), 1st Reading (hemolytic anemia): neg.
IgG, 1st Reading (hemolytic anemia): 304
IgM, 1st Reading (hemolytic anemia): 120
IgG, % Change (hemolytic anemia): -60%
IgM, % Change (hemolytic anemia): -32%
IgG, Baseline (hemolytic anemia; [5]): 760
IgM, Baseline (hemolytic anemia; [5]): 176

CCOc1ccc2c(c1)sc1sc(-c3ccccc3)c(O)[n+]12 [F]
% Change in weight (thymus gland) (thymus gland; 150 mg/kg): -16%
Avg. weight of thymus gland (thymus gland; 150 mg/kg): 33.3 mg

[O-]c1c(-c2ccccc2)sc2sc3ccccc3[n+]12 [A]
IgG, mean (total number of plaques per spleen) ([3]; Day 4): 107,100 plaques per spleen
IgM, mean (total number of plaques per spleen) ([3]; Day 4): 163,800 plaques per spleen
IgG, mean (total number of plaques per spleen) ([3]; Day 5): 184,590 plaques per spleen
IgM, mean (total number of plaques per spleen) ([3]; Day 5): 97,020 plaques per spleen
toxicity (printed in the thymus weight column) (thymus gland; 200 mg/kg): toxic
ANA (antinuclear antibody), 1st Reading (hemolytic anemia): neg.
IgG, 1st Reading (hemolytic anemia): 570
IgM, 1st Reading (hemolytic anemia): 176
IgG, % Change (hemolytic anemia): -15%
IgM, % Change (hemolytic anemia): +21%
ANA (antinuclear antibody), Baseline (hemolytic anemia; [5]): neg.
IgG, Baseline (hemolytic anemia; [5]): 674
IgM, Baseline (hemolytic anemia; [5]): 146

O=P1(N(CCCl)CCCl)NCCCO1 (stereo not drawn) [Cyclophosphamide, cyclophosphamide, reference compound]
Mean % Inhibition of Paw Edema ([4]; 6 hours after challenge): 58%
Mean % Inhibition of Paw Edema ([4]; 24 hours before challenge): 56%

[O-]c1c(-c2ccccc2)sc2sc3ccc(Cl)cc3[n+]12 [C]
IgG, mean (total number of plaques per spleen) ([3]; Day 4): 22,875 plaques per spleen
IgM, mean (total number of plaques per spleen) ([3]; Day 4): 110,643 plaques per spleen
IgG, mean (total number of plaques per spleen) ([3]; Day 5): 117,337 plaques per spleen
IgM, mean (total number of plaques per spleen) ([3]; Day 5): 55,518 plaques per spleen

Oc1c(-c2ccccc2)sc2sc3ccccc3[n+]12 [G]
% Change in weight (thymus gland) (thymus gland; 75 mg/kg): -29%
Avg. weight of thymus gland (thymus gland; 75 mg/kg): 28.0 mg

Oc1c(-c2ccccc2)sc2sc3c([n+]12)CCCC3 [H]
% Change in weight (thymus gland) (thymus gland; 75 mg/kg): +2%
Avg. weight of thymus gland (thymus gland; 75 mg/kg): 40.5 mg

O=C(c1sc2sc3ccc(Cl)cc3[n+]2c1[O-])C(F)(F)F [D]
% Change in weight (thymus gland) (thymus gland; 200 mg/kg): -28%
Avg. weight of thymus gland (thymus gland; 200 mg/kg): 28.4 mg
IgG, 1st Reading (hemolytic anemia): 770
IgM, 1st Reading (hemolytic anemia): 190
IgG, % Change (hemolytic anemia): +8%
IgM, % Change (hemolytic anemia): +4%
IgG, Baseline (hemolytic anemia; [5]): 710
IgM, Baseline (hemolytic anemia; [5]): 182

[O-]c1c(-c2ccccc2)sc2sc3c([n+]12)CCCC3 [Example 11, 2-Phenyl-5,6,7,8-tetrahydrothiazolo[2,3-b]-benzothiazol-3(2H)-one mesoionic dedihydro derivative]
% Change in weight (thymus gland) (thymus gland; 200 mg/kg): -58%
Avg. weight of thymus gland (thymus gland; 200 mg/kg): 16.8 mg
ANA (antinuclear antibody), 1st Reading (hemolytic anemia): neg.
IgG, 1st Reading (hemolytic anemia): 356
IgM, 1st Reading (hemolytic anemia): 134
IgG, % Change (hemolytic anemia): -50%
IgM, % Change (hemolytic anemia): -31%
IgG, Baseline (hemolytic anemia; [5]): 710
IgM, Baseline (hemolytic anemia; [5]): 194
